Measured values: patent US20110319409A1, “7-AZA-QUINAZOLINE PDE10 INHIBITORS” (priority 2010, published 2011)

Target: T1, human PDE10A2 (Homo sapiens, UniProt Q9Y233)
T1 construct: made in house; host or cells: AD293 cells, transiently transfected; cytoplasmic fraction of the lysate used as enzyme
Assay: PDE10 fluorescence polarization (IMAP FP) assay
Type: biochemical
Details: human PDE10 enzyme, FAM-labeled cAMP substrate 50 nM
Description: The activity of the compounds in accordance with the present invention as PDE10 inhibitors may be readily determined without undue experimentation using a fluorescence polarization (FP) methodology well known in the art (Huang, W., et al., J. Biomol Screen, 2002, 7: 215).
In a typical experiment the PDE10 inhibitory activity of the compounds of the present invention is determined in accordance with the following experimental method. PDE10A2 is amplified from human fetal brain cDNA (Clontech, Mountain View, Calif.) using a forward primer corresponding to nucleotides 56-77 of human PDE10A2 (Accession No. AF127480, Genbank Identifier 4894716), containing a Kozak consensus sequence, and a reverse primer Corresponding to nucleotides 2406-2413 of human PDE10A2 (Accession No. AF127480, Genbank Identifier 4894716). Amplification with Easy-A polymerase (Stratagene, La Jolla, Calif.) is carried out at 95° C. for 2 minutes followed by thirty three cycles of 95° C. for 40 seconds, 55° C. for 30 seconds, and 72° C. for 2 minutes 48 seconds. Final extension is at 72° C. for 7 minutes. The PCR product is TA cloned into pcDNA3.2-TOPO (Invitrogen, Carlsbad, Calif.) according to standard protocol.
AD293 cells with 70-80% confluency are transiently transfected with human PDE10A2/pcDNA3.2-TOPO using Lipofectamine 2000 according to manufacturer specifications (Invitrogen, Carlsbad, Calif.). Cells are harvested 48 hours post-transfection and lysed by sonication (setting 3, 10×5 sec pulses) in a buffer containing 20 mM HEPES, 1 mM EDTA and protease inhibitor cocktail (Roche). Lysate is collected by centrifugation at 75,000×g for 20 minutes. Supernatant containing the cytoplasmic fraction is used for evaluation of PDE10A2 activity.
The fluorescence polarization assay for cyclic nucleotide phosphodiesterases is performed using an IMAP® FP kit supplied by Molecular Devices, Sunnyvale, Calif. (product #R8139). IMAP® technology has been applied previously to phosphodiesterase assays (Huang, W., et al., J. Biomol Screen, 2002, 7: 215). Assays are performed at room temperature in 384-well microtiter plates with an incubation volume of 20.2 μL. Solutions of test compounds are prepared in DMSO and serially diluted with DMSO to yield 8 μL of each of 10 solutions differing by 3-fold in concentration, at 32 serial dilutions per plate. 100% inhibition is determined using a known PDE10 inhibitor, which can be any compound that is present at 5,000 times its Ki value in the assay described as follows, such as papaverine (see Siuciak, et al. Neuropharmacology (2006) 51:386-396; Becker, et al. Behav Brain Res (2008) 186(2):155-60; Threlfell, et al., J Pharmacol Exp Ther (2009) 328(3):785-795), 2-{4-[pyridin-4-yl-1-(2,2,2-trifluoroethyl)-1H-pyrazol-3-yl]phenoxymethyl}quinoline succinic acid or 2-[4-(1-methyl-4-pyridin-4-yl-1H-pyrazol-3-yl)-phenoxymethyl]quinoline succinic acid (see Schmidt, et al. J Pharmacol Exp Ther (2008) 325:681-690; Threlfell, et al., J Pharmacol Exp Ther (2009) 328(3): 785-795). 0% of inhibition is determined by using DMSO (1% final concentrations).
A Labcyte Echo 555 (Labcyte, Sunnyvale, Calif.) is used to dispense 200 nL from each well of the titration plate to the 384 well assay plate. A solution of enzyme (1/1600 dilution from aliquots; sufficient to produce 20% substrate conversion) and a separate solution of FAM-labeled cAMP PDE from Molecular Devices (product # R7506), at a final concentration of 50 nM are made in the assay buffer (10 mM Tris HCl, pH 7.2, 10 mM MgCl2, 0.05% NaN3 0.01% Tween-20, and 1 mM DTT). The enzyme and the substrate are then added to the assay plates in two consecutive additions of 10 μL, and then shaken to mix. The reaction is allowed to proceed at room temperature for 30 minutes. A binding solution is then made from the kit components, comprised of 80% Solution A, 20% Solution B and binding reagent at a volume of 1/600 the total binding solution. […]

T1 sequence (Q9Y233 267-1055): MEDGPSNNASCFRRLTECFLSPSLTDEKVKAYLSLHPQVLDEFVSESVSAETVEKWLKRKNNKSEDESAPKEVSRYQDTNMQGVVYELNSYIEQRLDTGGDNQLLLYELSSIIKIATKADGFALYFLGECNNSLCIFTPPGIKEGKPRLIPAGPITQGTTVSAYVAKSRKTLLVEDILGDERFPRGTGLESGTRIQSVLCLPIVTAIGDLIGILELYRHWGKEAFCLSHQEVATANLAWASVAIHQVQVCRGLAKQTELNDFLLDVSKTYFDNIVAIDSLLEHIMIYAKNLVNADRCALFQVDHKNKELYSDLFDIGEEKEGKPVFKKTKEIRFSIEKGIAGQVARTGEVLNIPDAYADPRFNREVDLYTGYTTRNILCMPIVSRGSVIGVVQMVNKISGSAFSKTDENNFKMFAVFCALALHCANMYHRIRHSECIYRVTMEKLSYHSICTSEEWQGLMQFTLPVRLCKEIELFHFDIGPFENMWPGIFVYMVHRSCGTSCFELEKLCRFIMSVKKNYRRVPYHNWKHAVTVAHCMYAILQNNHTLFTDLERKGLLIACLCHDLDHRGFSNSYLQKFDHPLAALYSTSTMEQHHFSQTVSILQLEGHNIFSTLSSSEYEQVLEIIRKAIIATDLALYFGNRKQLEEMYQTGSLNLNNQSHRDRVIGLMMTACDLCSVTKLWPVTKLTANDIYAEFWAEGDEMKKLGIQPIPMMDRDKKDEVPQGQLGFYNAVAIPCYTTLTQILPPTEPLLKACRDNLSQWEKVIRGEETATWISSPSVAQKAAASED

Ki | SMILES
1.4 nM | Cc1ncccc1-c1cccc(-c2nc(NCc3ccncc3)c3ccncc3n2)c1 [1-1, 2-[3-(2-Methylpyridin-3-yl)phenyl]-N-(pyridin-4-ylmethyl)pyrido[3,4-d]pyrimidin-4-amine]
2.7 nM | COc1ncccc1-c1cccc(-c2nc(NCCO)c3ccncc3n2)c1 [1-3, 2-({2-[3-(2-Methoxypyridin-3-yl)phenyl]pyrido[3,4-d]pyrimidin-4-yl}amino)ethanol]
0.41 nM | COc1ncccc1-c1cccc(-c2nc(NCc3cncnc3)c3ccncc3n2)c1 [1-4, 2-[3-(2-Methoxypyridin-3-yl)phenyl]-N-(pyrimidin-5-ylmethyl)pyrido[3,4-d]pyrimidin-4-amine]
0.55 nM | c1cc(-c2nc(NCCN3CCOCC3)c3ccncc3n2)cc(-c2cncc3ccccc23)c1 [1-7]
0.23 nM | O=S(=O)(c1cccc2c1CN(c1nc(NCc3ccncc3)c3ccncc3n1)CC2)N1CCOCC1 [1-8, 2-[8-(Morpholin-4-ylsulfonyl)-3,4-dihydroisoquinolin-2(1H)-yl]-N-(pyridin-4-ylmethyl)pyrido[3,4-d]pyrimidin-4-amine]
2.7 nM | c1cc(-c2nc(OCc3ccncc3)c3ccncc3n2)cc(-c2ncco2)c1 [1-9, 2-[3-(1,3-Oxazol-2-yl)phenyl]-4-(pyridin-4-ylmethoxy)pyrido[3,4-d]pyrimidine]
0.84 nM | COc1ncccc1-c1cncc(-c2nc(NCc3cncnc3)c3ccncc3n2)c1 [1-11, 2-(2′-methoxy-3,3′-bipyridin-5-yl)-N-(pyrimidin-5-ylmethyl)pyrido[3,4-d]pyrimidin-4-amine]
1.4 nM | CC(C)OC(=O)c1cccc(-c2nc(NCc3ccncc3)c3ccncc3n2)c1 [1-13, isopropyl 3-{4-[(pyridin-4-ylmethyl)amino]pyrido[3,4-d]pyrimidin-2-yl}benzoate]
0.4 nM | COc1ncccc1-c1cccc(-c2nc(NCc3ccncc3)c3ccncc3n2)c1 [A-6, 2-{3-[2-(Methyloxy)pyridin-3-yl]phenyl}-N-(pyridin-4-ylmethyl)pyrido[3, d]pyrimidin-4-amine]
5.6 nM | c1ccc2c(c1)CCN(c1nc(NCc3ccncc3)c3ccncc3n1)C2 [B-4, 2-(3,4-Dihydroisoquinolin-2(1H)-yl)-N-(pyridin-4-ylmethyl)pyrido[3,4-d]pyrimidin-4-amine]
131 nM | C(=C\c1nc(NCc2cncnc2)c2ccncc2n1)/c1ccccc1 [C-2, 2-[(E)-2-Phenylvinyl]-N-(pyrimidin-5-ylmethyl)pyrido[3,4-d]pyrimidin-4-amine]
